For orientation: Ki means a measure of affinity in units of concentration, obtained from inhibition or displacement. The IC50 is the concentration that inhibits the measured activity by half. Lower therefore signals higher potency.

The structures appear in SMILES notation. Like-named read-outs stand apart in the source and are kept apart here. Some results are limits rather than exact numbers.

Experiment [1] concerns the target recombinant rat homomeric GluK1 (Rattus norvegicus, UniProt P22756). The experiment can be described thus: Binding affinity at cloned homomeric GluK1 expressed in sf9 cells, [3H]-NF608.
Another experiment concerns the target T1, human EAAT3 (Homo sapiens, UniProt P43005).
T1 sequence (P43005 1-524): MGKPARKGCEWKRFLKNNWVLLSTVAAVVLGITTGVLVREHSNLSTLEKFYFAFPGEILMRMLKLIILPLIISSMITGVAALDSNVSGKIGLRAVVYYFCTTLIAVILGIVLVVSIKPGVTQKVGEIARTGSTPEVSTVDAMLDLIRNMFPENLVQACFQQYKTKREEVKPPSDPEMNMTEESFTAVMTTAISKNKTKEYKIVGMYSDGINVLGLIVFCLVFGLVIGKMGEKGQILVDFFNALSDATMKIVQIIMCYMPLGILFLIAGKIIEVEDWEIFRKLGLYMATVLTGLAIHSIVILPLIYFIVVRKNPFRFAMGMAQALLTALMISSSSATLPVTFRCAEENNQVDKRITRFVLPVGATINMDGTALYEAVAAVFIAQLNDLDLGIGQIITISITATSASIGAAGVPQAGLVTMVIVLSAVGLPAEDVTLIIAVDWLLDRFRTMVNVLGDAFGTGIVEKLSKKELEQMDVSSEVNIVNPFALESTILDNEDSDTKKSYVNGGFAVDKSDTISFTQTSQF
Nature of the experiment: [3H]-D-Asp uptake assay, EAAT3 stably expressed in HEK293 cells. The class given is cell-based.

In another experiment the target is human EAAT1 (Homo sapiens, UniProt P43003). The experiment can be described thus: [3H]-D-Asp uptake assay, EAAT1 stably expressed in HEK293 cells. The class given is cell-based.
Sequence of human EAAT1 (P43003 whole entry): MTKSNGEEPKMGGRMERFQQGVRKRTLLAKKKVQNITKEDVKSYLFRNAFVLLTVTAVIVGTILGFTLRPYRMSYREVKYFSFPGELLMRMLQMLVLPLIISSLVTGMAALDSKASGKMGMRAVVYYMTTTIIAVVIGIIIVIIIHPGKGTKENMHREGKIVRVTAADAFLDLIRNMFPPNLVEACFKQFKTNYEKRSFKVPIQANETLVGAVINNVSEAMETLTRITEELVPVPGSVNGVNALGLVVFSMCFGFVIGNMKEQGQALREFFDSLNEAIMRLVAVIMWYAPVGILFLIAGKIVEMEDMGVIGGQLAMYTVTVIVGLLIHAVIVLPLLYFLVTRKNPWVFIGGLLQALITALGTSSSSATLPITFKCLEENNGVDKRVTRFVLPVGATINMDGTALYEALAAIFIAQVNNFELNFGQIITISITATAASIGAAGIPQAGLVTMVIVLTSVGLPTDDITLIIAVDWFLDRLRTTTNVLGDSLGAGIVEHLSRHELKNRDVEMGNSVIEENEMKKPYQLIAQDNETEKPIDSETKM
Experiment [2] concerns the target recombinant rat homomeric GluK3 (Rattus norvegicus, UniProt P42264). Nature of the experiment: Binding affinity at cloned homomeric GluK3 expressed in sf9 cells, [3H]-KA. To be noted: for GluK1/K3 (GluK1/GluK3 Ki selectivity ratio): ratio of Ki values at cloned homomeric receptors.
The next experiment has as its target human EAAT2 (Homo sapiens, UniProt P43004). Nature of the experiment: [3H]-D-Asp uptake assay, EAAT2 stably expressed in HEK293 cells. The class given is cell-based.
A further experiment has as its target native KA receptors. The experiment can be described thus: Binding affinity at native KA receptors, [3H]-KA, rat cortical synaptosomes. The note with it: native iGluRs; for IC50 KA: mean of at least three experiments.
Experiment [3] deals with recombinant rat homomeric GluK2 (Rattus norvegicus, UniProt P42260). The experiment can be described thus: Binding affinity at cloned homomeric GluK2 expressed in sf9 cells, [3H]-KA.
Sequence of recombinant rat homomeric GluK2 (P42260 32-908): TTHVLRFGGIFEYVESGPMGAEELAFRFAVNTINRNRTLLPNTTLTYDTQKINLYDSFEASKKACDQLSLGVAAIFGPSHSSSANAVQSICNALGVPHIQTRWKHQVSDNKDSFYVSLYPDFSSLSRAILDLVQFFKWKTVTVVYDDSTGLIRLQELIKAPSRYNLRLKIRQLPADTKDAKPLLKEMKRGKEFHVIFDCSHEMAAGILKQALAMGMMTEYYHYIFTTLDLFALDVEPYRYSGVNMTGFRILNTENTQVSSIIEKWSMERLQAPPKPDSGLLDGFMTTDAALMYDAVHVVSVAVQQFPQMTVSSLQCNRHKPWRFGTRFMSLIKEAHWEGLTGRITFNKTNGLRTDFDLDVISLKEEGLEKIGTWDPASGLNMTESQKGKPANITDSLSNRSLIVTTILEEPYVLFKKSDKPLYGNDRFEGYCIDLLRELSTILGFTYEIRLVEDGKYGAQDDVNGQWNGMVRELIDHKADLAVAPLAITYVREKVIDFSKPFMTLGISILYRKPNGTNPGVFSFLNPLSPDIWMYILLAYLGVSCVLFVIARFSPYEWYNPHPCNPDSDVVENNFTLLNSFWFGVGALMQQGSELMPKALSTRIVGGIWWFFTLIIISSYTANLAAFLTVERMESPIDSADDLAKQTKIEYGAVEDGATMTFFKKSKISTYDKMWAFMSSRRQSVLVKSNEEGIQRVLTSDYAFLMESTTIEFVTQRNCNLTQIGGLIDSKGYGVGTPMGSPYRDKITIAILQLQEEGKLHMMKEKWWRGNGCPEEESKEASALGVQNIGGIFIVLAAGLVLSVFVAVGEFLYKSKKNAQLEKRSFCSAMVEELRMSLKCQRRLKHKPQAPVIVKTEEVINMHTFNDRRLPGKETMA
The next experiment addresses native NMDA receptors. It counts as binding. To be noted: native iGluRs, rat synaptosomes.
The mark [4] stands for this setting: Ki GluK3, cloned homomeric receptor, mean ± SEM, at least three experiments.
The mark [5] stands for this setting: IC50 EAAT1, HEK293 cells, [3H]-D-Asp uptake.

Sequence of recombinant rat homomeric GluK3 (P42264 32-919): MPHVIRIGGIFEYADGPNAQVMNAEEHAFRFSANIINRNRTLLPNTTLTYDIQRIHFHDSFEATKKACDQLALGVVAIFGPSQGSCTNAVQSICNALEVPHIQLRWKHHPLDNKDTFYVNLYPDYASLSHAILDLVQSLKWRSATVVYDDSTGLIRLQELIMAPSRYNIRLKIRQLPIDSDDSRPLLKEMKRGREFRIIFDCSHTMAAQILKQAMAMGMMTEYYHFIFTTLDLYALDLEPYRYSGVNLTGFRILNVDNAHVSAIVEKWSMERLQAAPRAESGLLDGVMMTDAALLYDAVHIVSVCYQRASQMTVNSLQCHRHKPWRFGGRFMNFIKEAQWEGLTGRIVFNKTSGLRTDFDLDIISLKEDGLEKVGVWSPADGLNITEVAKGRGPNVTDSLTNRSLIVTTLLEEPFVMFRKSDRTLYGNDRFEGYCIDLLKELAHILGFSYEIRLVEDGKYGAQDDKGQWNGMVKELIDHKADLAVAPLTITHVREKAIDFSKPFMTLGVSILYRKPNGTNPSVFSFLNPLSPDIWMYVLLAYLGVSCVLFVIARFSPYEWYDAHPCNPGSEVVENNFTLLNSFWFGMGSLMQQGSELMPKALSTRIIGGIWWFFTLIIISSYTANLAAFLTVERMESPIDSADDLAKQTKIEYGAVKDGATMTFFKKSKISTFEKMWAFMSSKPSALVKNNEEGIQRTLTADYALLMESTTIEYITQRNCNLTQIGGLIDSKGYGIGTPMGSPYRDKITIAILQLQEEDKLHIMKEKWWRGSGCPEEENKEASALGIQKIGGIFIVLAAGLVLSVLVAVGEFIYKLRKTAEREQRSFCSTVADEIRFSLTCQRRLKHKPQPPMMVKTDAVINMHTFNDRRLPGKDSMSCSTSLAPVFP
Sequence of human EAAT2 (P43004 whole entry): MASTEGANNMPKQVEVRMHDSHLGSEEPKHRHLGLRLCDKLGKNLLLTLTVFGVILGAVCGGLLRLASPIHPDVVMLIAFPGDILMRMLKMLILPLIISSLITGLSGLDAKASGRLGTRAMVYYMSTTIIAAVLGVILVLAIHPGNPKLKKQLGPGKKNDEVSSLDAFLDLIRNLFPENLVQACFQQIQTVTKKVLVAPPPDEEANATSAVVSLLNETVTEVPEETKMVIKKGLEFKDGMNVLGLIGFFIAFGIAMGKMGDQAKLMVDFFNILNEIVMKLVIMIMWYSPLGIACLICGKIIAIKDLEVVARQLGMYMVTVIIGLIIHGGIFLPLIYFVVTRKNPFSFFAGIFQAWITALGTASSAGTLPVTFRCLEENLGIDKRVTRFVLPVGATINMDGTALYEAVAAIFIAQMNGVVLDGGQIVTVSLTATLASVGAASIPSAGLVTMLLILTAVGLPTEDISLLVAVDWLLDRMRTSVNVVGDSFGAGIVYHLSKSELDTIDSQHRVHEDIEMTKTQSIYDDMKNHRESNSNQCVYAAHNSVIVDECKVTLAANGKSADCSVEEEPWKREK
Sequence of recombinant rat homomeric GluK1 (P22756 31-949): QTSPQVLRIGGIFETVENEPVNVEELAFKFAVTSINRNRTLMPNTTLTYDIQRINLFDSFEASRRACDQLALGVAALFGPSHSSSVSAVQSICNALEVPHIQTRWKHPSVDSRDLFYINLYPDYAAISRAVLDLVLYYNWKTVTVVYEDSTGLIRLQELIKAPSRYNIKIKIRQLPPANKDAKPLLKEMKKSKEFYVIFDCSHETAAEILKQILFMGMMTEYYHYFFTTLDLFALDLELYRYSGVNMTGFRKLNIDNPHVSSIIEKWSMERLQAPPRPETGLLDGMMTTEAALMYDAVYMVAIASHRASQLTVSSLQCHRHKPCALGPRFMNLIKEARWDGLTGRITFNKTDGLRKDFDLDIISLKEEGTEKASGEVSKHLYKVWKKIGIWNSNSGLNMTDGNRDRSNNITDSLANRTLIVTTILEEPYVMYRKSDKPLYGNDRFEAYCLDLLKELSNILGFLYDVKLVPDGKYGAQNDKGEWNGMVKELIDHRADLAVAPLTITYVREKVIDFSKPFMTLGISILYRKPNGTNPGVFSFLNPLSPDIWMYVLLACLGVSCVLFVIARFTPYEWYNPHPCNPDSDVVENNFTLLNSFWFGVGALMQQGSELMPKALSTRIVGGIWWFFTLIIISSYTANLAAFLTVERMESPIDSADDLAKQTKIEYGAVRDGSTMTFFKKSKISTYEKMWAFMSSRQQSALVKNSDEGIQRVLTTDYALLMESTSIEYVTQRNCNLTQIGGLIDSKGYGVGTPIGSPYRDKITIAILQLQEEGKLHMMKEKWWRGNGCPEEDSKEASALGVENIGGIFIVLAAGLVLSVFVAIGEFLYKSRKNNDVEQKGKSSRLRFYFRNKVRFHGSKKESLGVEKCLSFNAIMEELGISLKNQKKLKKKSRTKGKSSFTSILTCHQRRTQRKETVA

`Cl.O=C(O)C(Cc1c[nH]nn1)[C@@H]1CCN[C@H]1C(=O)O` (mixture of isomers) [3p, trans-3-(1-Carboxy-2-(1H-1,2,3-triazol-4-yl)ethyl)pyrrolidine-2-carboxylic Acid Hydrochloride]: the inhibitory constant (Ki) in experiment [1] stood at 14 ± 2 µM; in experiment [2] (setting [4]) it was 3.1 ± 0.14 µM; in experiment [3] (Ki GluK2), 55 ± 9 µM. For the same compound, the IC50 against human EAAT3, at human EAAT1 (IC50 EAAT1) and against human EAAT2 was above 300 µM each time. Further, the “GluK1/K3 (GluK1/GluK3 Ki selectivity ratio)” value in experiment [2] was 5. The “pIC50 KA (mean ± SEM, in brackets)” value at native KA receptors turned out to be 4.23 ± 0.03. In addition, the “IC50 KA” value on native KA receptors stood at 59 µM.

For the compound `CCCC(C(=O)O)[C@@H]1CCN[C@H]1C(=O)O.Cl` (relative stereo) [3e, trans-3-(1-Carboxybutyl)pyrrolidine-2-carboxylic Acid Hydrochloride], the “IC50 KA” value at native KA receptors was above 100 µM.

Turning to `CC(C)C(C(=O)O)[C@@H]1CCN[C@H]1C(=O)O.Cl` (relative stereo) [3f, trans-3-(1-Carboxy-2-methylpropyl)pyrrolidine-2-carboxylic Acid Hydrochloride], the Ki in experiment [1], in experiment [2] (setting [4]) and in experiment [3] (Ki GluK2) was above 100 µM throughout. The half-inhibitory concentration (IC50) at human EAAT3 is 35.5 µM; against human EAAT1 (IC50 EAAT1), 45 µM; against human EAAT1 (pIC50 EAAT1 (mean ± SEM, in brackets)), 45.7 µM; against human EAAT2, 15.8 µM. The “IC50 KA” value at native KA receptors was above 100 µM.

With `Cl.O=C(O)C(Cc1ccccc1)[C@@H]1CCN[C@H]1C(=O)O` (relative stereo) [3g, trans-3-(1-Carboxy-2-phenylethyl)pyrrolidine-2-carboxylic Acid Hydrochloride], the Ki in experiment [1] was determined as 46 ± 2.2 µM; in experiment [2] (setting [4]) it was 5.4 ± 0.42 µM; in experiment [3] (Ki GluK2), 67 ± 4.6 µM. For the same compound, the IC50 against human EAAT1 (setting [5]) was 34 µM; against human EAAT1 (pIC50 EAAT1 (mean ± SEM, in brackets), HEK293 cells, [3H]-D-Asp uptake) it was 34.7 µM; at human EAAT2 it was 20 µM. Further, the “selectivity for EAAT1 and EAAT2 over EAAT3” value at human EAAT1 (from IC50 values) was 10 fold. The “GluK1/K3 (GluK1/GluK3 Ki selectivity ratio)” value in experiment [2] was 9. Moreover, at native KA receptors, the “pIC50 KA (mean ± SEM, in brackets)” value is 4.15 ± 0.04. Moreover, the “IC50 KA” value on native KA receptors was found to be 71 µM.

For the compound `Cl.O=C(O)C(CCc1ccccc1)[C@@H]1CCN[C@H]1C(=O)O` (relative stereo) [3h, trans-3-(1-Carboxy-3-phenylpropyl)pyrrolidine-2-carboxylic Acid Hydrochloride], the Ki is above 100 µM in experiment [1], 86 ± 7.3 µM in experiment [2] (setting [4]) and above 100 µM in experiment [3] (Ki GluK2). The IC50 at human EAAT3, against human EAAT1 (IC50 EAAT1) and against human EAAT2 was above 300 µM each time. Further, at native KA receptors, the “IC50 KA” value was above 100 µM.

In the case of `COC(C(=O)O)[C@@H]1CCN[C@H]1C(=O)O.Cl` (relative stereo) [3j-d1, trans-3-(Carboxy(methoxy)methyl)pyrrolidine-2-carboxylic Acid Hydrochloride], the Ki in experiment [1] was above 100 µM; in experiment [2], 82 ± 11.2 µM; in experiment [3], above 100 µM. For the same compound, the values for the IC50 against human EAAT3, against human EAAT1 and against human EAAT2 were above 1000 µM, above 1000 µM and around 300 µM, respectively. Further, the “IC50 KA” value on native KA receptors was above 100 µM.

Regarding `Cl.O=C(O)CC(C(=O)O)[C@@H]1CCN[C@H]1C(=O)O` (relative stereo) [3l, trans-2-(2-Carboxypyrrolidin-3-yl)succinic Acid Hydrochloride], the Ki amounted to 2 ± 0.16 µM in experiment [1], 6.4 ± 1.2 µM in experiment [2] (setting [4]) and 33 ± 1.1 µM in experiment [3] (Ki GluK2). Besides, the IC50 on human EAAT3, at human EAAT1 (IC50 EAAT1) and on human EAAT2 was above 1000 µM each time. For the same compound, on native NMDA receptors, the “pKi NMDA (mean ± SEM, in brackets)” value came to 5.58 ± 0.03. Further, at native KA receptors, the “pIC50 KA (mean ± SEM, in brackets)” value worked out at 4.63 ± 0.02. Further, the “IC50 KA” value at native KA receptors was found to be 23 µM.

As to `Cl.O=C(O)CCC(C(=O)O)[C@@H]1CCN[C@H]1C(=O)O` (relative stereo) [3m, trans-2-(2-Carboxypyrrolidin-3-yl)pentanedioic Acid Hydrochloride], the inhibition constant Ki in experiment [1], in experiment [2] (setting [4]) and in experiment [3] (Ki GluK2) was above 100 µM in each case. Moreover, the IC50 against human EAAT3, at human EAAT1 (IC50 EAAT1) and against human EAAT2 was above 300 µM in each case. Besides, on native NMDA receptors, the “pKi NMDA (mean ± SEM, in brackets)” value was 4.28 ± 0.01. In addition, the “IC50 KA” value at native KA receptors was above 100 µM.

As to `O=C([O-])C(CCO)[C@@H]1CCN[C@H]1C(=O)[O-].[Na+].[Na+]` (relative stereo) [3n, Disodium trans-3-(1-Carboxylato-3-hydroxypropyl)pyrrolidine-2-carboxylate], the Ki is above 100 µM in experiment [1]; 52 ± 3 µM in experiment [2] (setting [4]); above 100 µM in experiment [3] (Ki GluK2, cloned homomeric receptor, mean ± SEM, at least three experiments). In addition, the IC50 against human EAAT3, on human EAAT1 (setting [5]) and against human EAAT2 was above 300 µM throughout. For the same compound, the “pKi NMDA (mean ± SEM, in brackets)” value at native NMDA receptors was determined as 4.23 ± 0.06. For the same compound, the “GluK1/K3 (GluK1/GluK3 Ki selectivity ratio)” value in experiment [2] is recorded as above 2.

`Cl.O=C(O)C(CCCO)[C@@H]1CCN[C@H]1C(=O)O` (relative stereo) [3o, trans-3-(1-Carboxy-4-hydroxybutyl)pyrrolidine-2-carboxylic Acid Hydrochloride]: the Ki in experiment [1], in experiment [2] (setting [4]) and in experiment [3] (Ki GluK2) was above 100 µM each time. Also, the IC50 against human EAAT3, against human EAAT1 (IC50 EAAT1) and against human EAAT2 was above 300 µM throughout. Moreover, the “IC50 KA” value at native KA receptors was above 100 µM.

Take `CC[C@H](C(=O)O)[C@H]1CCN[C@@H]1C(=O)O.Cl` [3c-s1, (2S,3R)-3-((S)-1-Carboxypropyl)pyrrolidine-2-carboxylic Acid Hydrochloride]: the Ki in experiment [1] is 18 ± 3.8 µM; in experiment [2], 11 ± 2.4 µM; in experiment [3], above 100 µM. In addition, the results for the IC50 on human EAAT3, on human EAAT1 and on human EAAT2 were around 50 µM, around 100 µM and around 30 µM, respectively. Besides, the “pKi NMDA (mean ± SEM, in brackets)” value on native NMDA receptors turned out to be 4.88 ± 0.02. Besides, the “GluK1/K3 (GluK1/GluK3 Ki selectivity ratio)” value in experiment [2] came to 2. Further, the “IC50 KA” value at native KA receptors is above 100 µM.

As to `CC[C@@H](C(=O)O)[C@H]1CCN[C@@H]1C(=O)O.Cl` [3c-s2, (2S,3R)-3-((R)-1-Carboxypropyl)pyrrolidine-2-carboxylic Acid Hydrochloride], the Ki in experiment [1] was 41 ± 14 µM; in experiment [2] it was 6.3 ± 1.3 µM; in experiment [3], 70 ± 14 µM. Besides, the IC50 against human EAAT3, against human EAAT1 and against human EAAT2 was above 300 µM throughout. Moreover, the “GluK1/K3 (GluK1/GluK3 Ki selectivity ratio)” value in experiment [2] was 7. For the same compound, on native KA receptors, the “IC50 KA” value is above 100 µM.

Turning to `Cl.O=C(O)[C@H]1NCC[C@@H]1[C@@H](C(=O)O)c1ccccc1` [3d-s1, (2S,3R)-3-((R)-Carboxy(phenyl)methyl)pyrrolidine-2-carboxylic Acid Hydrochloride], the inhibition constant (Ki) in experiment [1], in experiment [2] (Ki GluK3) and in experiment [3] (Ki GluK2) was above 100 µM throughout. Moreover, the IC50 on human EAAT3 was above 300 µM; on human EAAT1 (IC50 EAAT1), above 300 µM; against human EAAT2 it was around 50 µM. Further, the “IC50 KA” value at native KA receptors was above 100 µM.

Regarding `Cl.O=C(O)[C@H]1NCC[C@@H]1[C@H](C(=O)O)c1ccccc1` [3d-s2, (2S,3R)-3-((S)-Carboxy(phenyl)methyl)pyrrolidine-2-carboxylic Acid Hydrochloride], the Ki in experiment [1], in experiment [2] (Ki GluK3) and in experiment [3] (Ki GluK2) was above 100 µM each time. The IC50 against human EAAT3, against human EAAT1 (IC50 EAAT1) and against human EAAT2 was above 300 µM each time. Besides, the “IC50 KA” value on native KA receptors is above 100 µM.

As to `Cl.O=C(O)C(Cc1c[nH]nn1)[C@@H]1CCN[C@H]1C(=O)O` (stereo partly drawn) [3p-d1, trans-3-(1-Carboxy-2-(1H-1,2,3-triazol-4-yl)ethyl)pyrrolidine-2-carboxylic Acid Hydrochloride], the Ki in experiment [1] was around 100 µM; in experiment [2] (setting [4]), 6.6 ± 0.09 µM; in experiment [3] (Ki GluK2), above 100 µM. Besides, the IC50 at human EAAT3, on human EAAT1 (IC50 EAAT1) and on human EAAT2 was above 300 µM in each case. Also, the “IC50 KA” value at native KA receptors is above 100 µM.

Take `Cl.O=C(O)C(Cc1c[nH]nn1)[C@@H]1CCN[C@H]1C(=O)O` (stereo partly drawn) [3p-d2, trans-3-(1-Carboxy-2-(1H-1,2,3-triazol-4-yl)ethyl)pyrrolidine-2-carboxylic Acid Hydrochloride]: at native NMDA receptors, the “pKi NMDA (mean ± SEM, in brackets)” value is reported as 4.30 ± 0.03. For the same compound, the values for the Ki in experiment [2] (setting [4]) and in experiment [3] (Ki GluK2) were 2.7 ± 0.32 µM and 43 ± 5.2 µM, respectively. For the same compound, the “pIC50 KA (mean ± SEM, in brackets)” value on native KA receptors came to 4.24 ± 0.01. Also, on native KA receptors, the “IC50 KA” value was determined as 58 µM.

In the case of `Cc1onc(O)c1CC(N)C(=O)O` (stereo not drawn) [AMPA, α-amino-3-hydroxy-5-methyl-4-isoxazolepropionic acid, reference compound], in experiment [2], the GluK1/GluK3 is 0.03 and the GluK2/GluK3 was above 23.

The record behind these values is article PMC6597265 (ACS chemical neuroscience, 2019).
